Among the data in US8455475B2 (Gruenenthal GmbH, priority 2009, dated 2013) are inhibition values, retold here.

The target in this assay is T1, rat B1R (bradykinin receptor 1) (Rattus norvegicus, UniProt P97583).
T1 construct: expressed in transfected cells; host or cells: CHO K1 cells
T1 sequence (P97583 1-337): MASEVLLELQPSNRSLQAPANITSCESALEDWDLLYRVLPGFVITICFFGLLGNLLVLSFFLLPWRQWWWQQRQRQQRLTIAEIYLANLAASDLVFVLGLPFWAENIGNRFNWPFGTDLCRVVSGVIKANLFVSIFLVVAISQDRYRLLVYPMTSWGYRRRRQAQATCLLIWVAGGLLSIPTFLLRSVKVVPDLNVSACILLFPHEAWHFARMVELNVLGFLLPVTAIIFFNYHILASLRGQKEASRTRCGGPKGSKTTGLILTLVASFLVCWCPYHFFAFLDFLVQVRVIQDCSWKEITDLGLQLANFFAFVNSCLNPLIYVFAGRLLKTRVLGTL
Put plainly: FLIPR Ca2+ assay (Fluo-4) on CHO K1 cells stably transfected with the B1R gene of the rat (rB1R cells): % inhibition at 10 μM / IC50, agonist Des-Arg9-bradykinin. Conditions: CHO-K1, rat B1R. It is filed as cell-based. The protocol: The agonistic or antagonistic action of substances can be quantified on the bradykinin receptor 1 (B1R) of the human and rat species with ectopically expressing cell lines (CHO K1 cells) and with the aid of a Ca^2+-sensitive dyestuff (Fluo-4) in a fluorescent imaging plate reader (FLIPR). The figure in % activation is based on the Ca^2+ signal after addition of Lys-Des-Arg^9-bradykinin (0.5 nM) or Des-Arg^9-bradykinin (100 nM). Antagonists lead to a suppression of the Ca^2+ inflow after addition of the agonist. % inhibition compared with the maximum achievable inhibition is stated.
The agonistic or antagonistic action of substances can be determined on the bradykinin receptor 1 (B1R) of the human and rat species with the following assay. In accordance with this assay, the Ca^2+ inflow through the channel is quantified with the aid of a Ca^2+-sensitive dyestuff (type Fluo-4, Molecular Probes Europe BV, Leiden, Holland) in a fluorescent imaging plate reader (FLIPR, Molecular Devices, Sunnyvale, USA).
Chinese hamster ovary cells (CHO K1 cells) transfected stably with the human B1R gene (hB1R cells) or the B1R gene of the rat (rB1R cells) are used. For functional studies, these cells are plated out on black 96-well plates with a clear base (BD Biosciences, Heidelberg, Germany or Greiner, Frickenhausen, Germany) in a density of 20,000-35,000 cells/well. The cells are left overnight at 37° C. and 5% CO2 in culture medium (hB1R cells: Nutrient Mixture Ham's F12, Gibco Invitrogen GmbH, Karlsruhe, Germany or DMEM, Sigma-Aldrich, Taufkirchen, Germany; rB1R cells: D-MEM/F12, Gibco Invitrogen GmbH, Karlsruhe, Germany) with 10 vol. % FBS (foetal bovine serum, Gibco Invitrogen GmbH, Karlsruhe, Germany or PAN Biotech GmbH, Aidenbach, Germany). On the following day, the cells are loaded for 60 min at 37° C. with 2.13 μM Fluo-4 (Molecular Probes Europe BV, Leiden Holland) in HBSS buffer (Hank's buffered saline solution, Gibco Invitrogen GmbH, Karlsruhe, Germany) with 2.5 mM probenecid (Sigma-Aldrich, Taufkirchen, Germany) and 10 mM HEPES (Sigma-Aldrich, Taufkirchen, Germany). The plates are then washed 2× with HBSS buffer, and HBSS buffer which additionally contains 0.1% BSA (bovine serum albumin; Sigma-Aldrich, Taufkirchen, Germany), 5.6 mM glucose and 0.05% gelatine (Merck KGaA, Darmstadt, Germany) is added. After a further incubation of 20 minutes at room temperature, the plates are inserted into the FLIPR for the Ca^2+ measurement. Alternatively, the plates are washed with buffer A (15 mM HEPES, 80 mM NaCl, 5 mM KCl, 1.2 mM CaCl2, 0.7 mM MgSO4, 2 g/l glucose, 2.5 mM probenecid), buffer A is added and the plates are loaded with 2.5 μM Fluo-4 and 0.025% Pluronic F127 (Sigma-Aldrich, Taufkirchen, Germany). Thereafter, the cells are washed 2× with buffer A and incubated for 30 minutes at room temperature with buffer A, which additionally contains 0.05% BSA and 0.05% gelatine, and thereafter inserted into the FLIPR for the Ca^2+ measurement. The Ca^2+-dependent fluorescence is measured here before and after addition of substances (λex=488 nm, λem=540 nm). Quantification is by measurement of the highest fluorescence intensity (FC, fluorescence counts) over time.
The FLIPR protocol consists of 2 additions of substance. Test substances (10 μM) are first pipetted on to the cells and the Ca^2+ inflow is compared with the control (hB1R: Lys-Des-Arg^9-bradykinin>=50 nM; rB1R: Des-Arg^9-bradykinin 10 μM). This gives the result in % activation based on the Ca^2+ signal after addition of Lys-Des-Arg^9-bradykinin (>=50 nM) or Des-Arg^9-bradykinin (10 μM). After incubation for 10-20 minutes, Lys-Des-Arg^9-bradykinin (hB1R) or Des-Arg^9-bradykinin (rB1R) in the concentration of the EC80 is applied and the inflow of Ca^2+ is likewise determined. Antagonists lead to a suppression of the Ca^2+ inflow. % inhibition compared with the maximum achievable inhibition is calculated.
For determination of the IC50 value, the substances are added in various concentrations. […]
For the molecule `O=C(NC1CCc2ccc(C(=O)N3CCC4(CCN(Cc5csnn5)CC4)C3)cc21)c1ccccc1Cl` (stereo not shown) [IND_CC-555, 2-Chloro-N-[6-[8-([1,2,3]thiadiazol-4-yl-methyl)-2,8-diazaspiro[4.5]decane-2-carbonyl]-2,3-dihydro-1H-inden-1-yl]-benzamide], the inhibition at 10 µM turned out to be 91%. For `O=C(c1ccc2c(c1)C(NS(=O)(=O)c1c(Cl)cccc1Cl)CC2)N1CCC2(CC1)CCN(c1ccncc1)CC2` (stereo not shown) [IND_CC-322, 2,6-Dichloro-N-[6-(9-pyridin-4-yl-3,9-diazaspiro[5.5]undecane-3-carbonyl)-2,3-dihydro-1H-inden-1-yl]-benzenesulfonic acid amide], the inhibition at 10 µM stood at 102%. The value for `O=C(NC1CCc2ccc(CC(=O)N3CCC4(CCN(Cc5ccc6nccnc6c5)CC4)C3)cc21)c1ccccc1Cl` (stereo not shown) [IND_CC-805, 2-Chloro-N-[6-[2-oxo-2-[8-(quinoxalin-6-yl-methyl)-3,8-diazaspiro[4.5]decan-3-yl]-ethyl]-2,3-dihydro-1H-inden-1-yl]-benzamide] was 51%. Next, `O=C(NC1CCc2ccc(C(=O)N3CCC4(CCN(Cc5ccccn5)CC4)CC3)cc21)c1cc(Cl)ccc1F` (stereo not shown) [IND_CC-626, 5-Chloro-2-fluoro-N-[6-[9-(pyridin-2-yl-methyl)-3,9-diazaspiro[5.5]undecane-3-carbonyl]-2,3-dihydro-1H-inden-1-yl]-benzamide]: 55%; `Cc1ccccc1C(=O)NC1CCc2ccc(C(=O)N3CCC4(CC3)CCN(c3ccncc3)C4)cc21` (stereo not shown) [IND_CC-347, 2-Methyl-N-[6-(2-pyridin-4-yl-2,8-diazaspiro[4.5]decane-8-carbonyl)-2,3-dihydro-1H-inden-1-yl]-benzamide]: 106%. As to `O=C(NC1CCc2ccc(C(=O)N3CCC4(CCN(Cc5ccc6ncccc6c5)CC4)CC3)cc21)c1cc(Cl)ccc1F` (stereo not shown) [IND_CC-677, 5-Chloro-2-fluoro-N-[6-[9-(quinolin-6-yl-methyl)-3,9-diazaspiro[5.5]undecane-3-carbonyl]-2,3-dihydro-1H-inden-1-yl]-benzamide], the inhibition at 10 µM is 72%. Take `O=C(NC1CCc2ccc(C(=O)N3CCC4(CCN(Cc5ccc6nccnc6c5)CC4)C3)cc21)c1cccc(Cl)c1Cl` (stereo not shown) [IND_CC-745, 2,3-Dichloro-N-[6-[8-(quinoxalin-6-yl-methyl)-2,8-diazaspiro[4.5]decane-2-carbonyl]-2,3-dihydro-1H-inden-1-yl]-benzamide]: the inhibition at 10 µM was found to be 70%. The value for `N#Cc1cccc(NC(=O)N2CCC3(CC2)CCN(C(=O)c2ccc4c(c2)C(N(C(=O)c2ccccc2Cl)C2CC2)CC4)C3)c1` (stereo not shown) [IND_CC-715, 2-[3-[(2-Chloro-benzoyl)-cyclopropyl-amino]-2,3-dihydro-1H-indene-5-carbonyl]-N-(3-cyano-phenyl)-2,8-diazaspiro[4.5]decane-8-carboxylic acid amide] was 79%; that for `O=C(NC1CCc2ccc(C(=O)N3CCC4(CCN(CCCc5cccc(F)c5)CC4)C3)cc21)c1cc(C(F)(F)F)ccc1Cl` (stereo not shown) [IND_CC-691, 2-Chloro-N-[6-[8-[3-(3-fluorophenyl)-propyl]-2,8-diazaspiro[4.5]decane-2-carbonyl]-2,3-dihydro-1H-inden-1-yl]-5-(trifluoromethyl)-benzamide] was 95%; that for `N#Cc1ccccc1S(=O)(=O)N1CCC2(CCN(C(=O)c3ccc4c(c3)C(NC(=O)c3ccccc3Cl)CC4)CC2)CC1` (stereo not shown) [IND_CC-611, 2-Chloro-N-[6-[9-[(2-cyano-phenyl)sulfonyl]-3,9-diazaspiro[5.5]undecane-3-carbonyl]-2,3-dihydro-1H-inden-1-yl]-benzamide] was 98%. Next, `COc1ccc(C(=O)NC2CCc3ccc(C(=O)N4CCC5(CCN(c6ccncc6)CC5)C4)cc32)c(F)c1` (stereo not shown) [IND_CC-313, 2-Fluoro-4-methoxy-N-[6-(8-pyridin-4-yl-2,8-diazaspiro[4.5]decane-2-carbonyl)-2,3-dihydro-1H-inden-1-yl]-benzamide]: 95%; `O=C(NC1CCc2ccc(C(=O)N3CCC4(CCN(Cc5csnn5)CC4)CC3)cc21)c1cc(C(F)(F)F)ccc1Cl` (stereo not shown) [IND_CC-663, 2-Chloro-N-[6-[9-([1,2,3]thiadiazol-4-yl-methyl)-3,9-diazaspiro[5.5]undecane-3-carbonyl]-2,3-dihydro-1H-inden-1-yl]-5-(trifluoromethyl)-benzamide]: 85%.

Regarding `O=C(NC1CCc2ccc(C(=O)N3CCC4(CCN(CCc5ccccc5)CC4)CC3)cc21)c1cccc(Cl)c1Cl` (stereo not shown) [IND_CC-758, 2,3-Dichloro-N-[6-(9-phenethyl-3,9-diazaspiro[5.5]undecane-3-carbonyl)-2,3-dihydro-1H-inden-1-yl]-benzamide], the inhibition at 10 µM was determined as 86%.

In the case of `CC(C)(C)CC(=O)N1CCC2(CC1)CCN(C(=O)c1ccc3c(c1)C(NC(=O)c1ccccc1Cl)CC3)CC2` (stereo not shown) [IND_CC-598, 2-Chloro-N-[6-[9-(3,3-dimethyl-butanoyl)-3,9-diazaspiro[5.5]undecane-3-carbonyl]-2,3-dihydro-1H-inden-1-yl]-benzamide], the inhibition at 10 µM is 96%.

Turning to `Cc1cccc(Cl)c1C(=O)NC1CCc2ccc(C(=O)N3CCC4(CCN(Cc5ccc6ncccc6c5)CC4)C3)cc21` (stereo not shown) [IND_CC-764, 2-Chloro-6-methyl-N-[6-[8-(quinolin-6-yl-methyl)-2,8-diazaspiro[4.5]decane-2-carbonyl]-2,3-dihydro-1H-inden-1-yl]-benzamide], the inhibition at 10 µM came out at 71%.

`CN(C(=O)c1c(F)cccc1F)C1CCc2ccc(C(=O)N3CCC4(CC3)CCN(c3ccncc3)CC4)cc21` (stereo not shown) [IND_CC-384, 2,6-Difluoro-N-methyl-N-[6-(9-pyridin-4-yl-3,9-diazaspiro[5.5]undecane-3-carbonyl)-2,3-dihydro-1H-inden-1-yl]-benzamide]: the inhibition at 10 µM is 104%. Next, `O=C(c1ccc2c(c1)C(NS(=O)(=O)c1c(Cl)cccc1Cl)CC2)N1CCC2(CCN(c3ccncc3)CC2)C1` (stereo not shown) [IND_CC-333, 2,6-Dichloro-N-[6-(8-pyridin-4-yl-2,8-diazaspiro[4.5]decane-2-carbonyl)-2,3-dihydro-1H-inden-1-yl]-benzenesulfonic acid amide]: 92%.

On to `CN(C(=O)c1ccccc1Cl)C1CCc2ccc(C(=O)N3CCC4(CCN(Cc5ccccc5C#N)CC4)C3)cc21` (stereo not shown) [IND_CC-505, 2-Chloro-N-[6-[8-[(2-cyano-phenyl)-methyl]-2,8-diazaspiro[4.5]decane-2-carbonyl]-2,3-dihydro-1H-inden-1-yl]-N-methyl-benzamide], for which the inhibition at 10 µM came to 67%. Regarding `O=C(NC1CCc2ccc(C(=O)N3CCC4(CCN(Cc5c(F)cccc5Cl)CC4)CC3)cc21)c1cccc(Cl)c1Cl` (stereo not shown) [IND_CC-727, 2,3-Dichloro-N-[6-[9-[(2-chloro-6-fluoro-phenyl)-methyl]-3,9-diazaspiro[5.5]undecane-3-carbonyl]-2,3-dihydro-1H-inden-1-yl]-benzamide], the inhibition at 10 µM was 74%.

One may read the inhibition as the drop in the measured response relative to a control, in per cent.
